Assay results: patent US20250082624A1, “METHODS OF TREATING COGNITIVE IMPAIRMENT” (NeuroTherapia, Inc., priority 2023, published 2025)

Experiment: Two-compartment PK model of NTRX-07 plasma data (fit and dose predictions)
Design: species or system human
Conditions: compartmental PK model; for AUC24 h accumulation / Cmax accumulation: over 7 days
Experimental: Predictive compartmental PK analysis was utilized during dose escalation to predict PK outcomes at higher dose levels based on data from lower ones.
FIGS. 22A and 22B show the mathematical model with a simultaneous fit to data from all four cohorts (excluding fed subject data).
Compartmental analysis was performed using a two-compartment model with extravascular administration. Modeling was performed using a sophisticated MS Excel workbook developed by PharmaDirections.
FIGS. 24A-B show the mathematical model (heavy blue line) fit to the Cohort A data. The model will be further refined as data from additional cohorts become available. In particular, the terminal slope may change some, as the current data set is inadequate to define it. The model was built based on geometric mean data, but timepoint data were not used in cases where plasma concentrations were below the limit of quantitation for four or more of the six subjects.
Note that the model estimates are somewhat higher than those obtained from non-compartmental analysis since they consider the entire dosing interval as opposed to only the time points for which data are available.
These predictions are based on an assumption of linear PK across the specified dose range, and parameters could be underestimated if a saturable process limits bioavailability or is involved in drug clearance. Current data are insufficient to determine whether any saturable processes are involved in NTRX-007 uptake or clearance.
(§1) Compartmental analysis was performed based on a two-compartment model with extravascular administration. Modeling was performed using a sophisticated MS Excel workbook developed by PharmaDirections. Geometric mean data from Cohorts A and B were used to determine weighted least squares best fits for the PK parameters.
FIGS. 26A-26B show the mathematical model (heavy blue line) fit to the Cohort B data. The model was built based on geometric mean data, but timepoint data were not used in cases where plasma concentrations were below the limit of quantitation for four or more of the seven subjects.
as §1, with “A, B,” for “A”, “C” for “B”
The model predicts somewhat higher exposure for b.i.d. dosing.
as §1, with “A, B, C,” for “A”, “D” for “B”

SMILES: CC1(Cc2ccccc2)COc2cc(C(=O)N3CCCCC3)ccc21 (stereo not shown) [NTRX-07, 3-benzyl-3-methyl-2,3-dihydrobenzofuran-6-carboxylic acid-piperidine amide]
- AUC24 h (40 mg SDD QD, Day 1): 96 ng·h/mL
- Cmax (40 mg SDD QD, Day 1): 43.9 ng/mL
- Cmin (40 mg SDD QD, Day 1): 0.0 ng/mL
- Tmax (40 mg SDD QD, Day 1): 4.8 min
- AUC24 h (40 mg SDD QD, Day 2): 100 ng·h/mL
- Cmax (40 mg SDD QD, Day 2): 44.3 ng/mL
- Cmin (40 mg SDD QD, Day 2): 0.4 ng/mL
- Tmax (40 mg SDD QD, Day 2): 4.8 min
- AUC24 h (40 mg SDD QD, Day 3): 101 ng·h/mL
- Cmax (40 mg SDD QD, Day 3): 44.4 ng/mL
- Cmin (40 mg SDD QD, Day 3): 0.5 ng/mL
- Tmax (40 mg SDD QD, Day 3): 4.8 min
- AUC24 h (40 mg SDD QD, Day 4): 101 ng·h/mL
- Cmax (40 mg SDD QD, Day 4): 44.4 ng/mL
- Cmin (40 mg SDD QD, Day 4): 0.5 ng/mL
- Tmax (40 mg SDD QD, Day 4): 4.8 min
- AUC24 h (40 mg SDD QD, Day 5): 101 ng·h/mL
- Cmax (40 mg SDD QD, Day 5): 44.4 ng/mL
- Cmin (40 mg SDD QD, Day 5): 0.5 ng/mL
- Tmax (40 mg SDD QD, Day 5): 4.8 min
- AUC24 h (40 mg SDD QD, Day 6): 101 ng·h/mL
- Cmax (40 mg SDD QD, Day 6): 44.4 ng/mL
- Cmin (40 mg SDD QD, Day 6): 0.5 ng/mL
- Tmax (40 mg SDD QD, Day 6): 4.8 min
- AUC24 h (40 mg SDD QD, Day 7): 101 ng·h/mL
- Cmax (40 mg SDD QD, Day 7): 44.4 ng/mL
- Cmin (40 mg SDD QD, Day 7): 0.5 ng/mL
- Tmax (40 mg SDD QD, Day 7): 4.8 min
- AUC24 h accumulation (40 mg SDD QD): 104%
- Cmax accumulation (40 mg SDD QD): 101%
- AUC24 h (120 mg SDD QD, Day 1): 210 ng·h/mL
- Cmax (120 mg SDD QD, Day 1): 74.6 ng/mL
- Tmax (120 mg SDD QD, Day 1): 37.8 min
- AUC24 h (120 mg SDD QD, Day 2): 227 ng·h/mL
- Cmax (120 mg SDD QD, Day 2): 76.1 ng/mL
- Cmin (120 mg SDD QD, Day 2): 1.5 ng/mL
- Tmax (120 mg SDD QD, Day 2): 37.8 min
- AUC24 h (120 mg SDD QD, Day 3): 230 ng·h/mL
- Cmax (120 mg SDD QD, Day 3): 76.3 ng/mL
- Cmin (120 mg SDD QD, Day 3): 1.8 ng/mL
- Tmax (120 mg SDD QD, Day 3): 37.8 min
- AUC24 h (120 mg SDD QD, Day 4): 231 ng·h/mL
- Cmax (120 mg SDD QD, Day 4): 76.4 ng/mL
- Cmin (120 mg SDD QD, Day 4): 1.8 ng/mL
- Tmax (120 mg SDD QD, Day 4): 37.8 min
- AUC24 h (120 mg SDD QD, Day 5): 231 ng·h/mL
- Cmax (120 mg SDD QD, Day 5): 76.4 ng/mL
- Cmin (120 mg SDD QD, Day 5): 1.8 ng/mL
- Tmax (120 mg SDD QD, Day 5): 37.8 min
- AUC24 h (120 mg SDD QD, Day 6): 231 ng·h/mL
- Cmax (120 mg SDD QD, Day 6): 76.4 ng/mL
- Cmin (120 mg SDD QD, Day 6): 1.8 ng/mL
- Tmax (120 mg SDD QD, Day 6): 37.8 min
- AUC24 h (120 mg SDD QD, Day 7): 231 ng·h/mL
- Cmax (120 mg SDD QD, Day 7): 76.4 ng/mL
- Cmin (120 mg SDD QD, Day 7): 1.8 ng/mL
- Tmax (120 mg SDD QD, Day 7): 37.8 min
- AUC24 h accumulation (120 mg SDD QD): 110%
- Cmax accumulation (120 mg SDD QD): 102%
- AUC24 h (360 mg SDD QD, Day 1): 559 ng·h/mL
- Cmax (360 mg SDD QD, Day 1): 162.0 ng/mL
- Tmax (360 mg SDD QD, Day 1): 47.4 min
- AUC24 h (360 mg SDD QD, Day 2): 616 ng·h/mL
- Cmax (360 mg SDD QD, Day 2): 166.4 ng/mL
- Cmin (360 mg SDD QD, Day 2): 4.7 ng/mL
- Tmax (360 mg SDD QD, Day 2): 47.4 min
- AUC24 h (360 mg SDD QD, Day 3): 628 ng·h/mL
- Cmax (360 mg SDD QD, Day 3): 167.4 ng/mL
- Cmin (360 mg SDD QD, Day 3): 5.4 ng/mL
- Tmax (360 mg SDD QD, Day 3): 47.4 min
- AUC24 h (360 mg SDD QD, Day 4): 631 ng·h/mL
- Cmax (360 mg SDD QD, Day 4): 167.6 ng/mL
- Cmin (360 mg SDD QD, Day 4): 5.7 ng/mL
- Tmax (360 mg SDD QD, Day 4): 47.4 min
- AUC24 h (360 mg SDD QD, Day 5): 631 ng·h/mL
- Cmax (360 mg SDD QD, Day 5): 167.6 ng/mL
- Cmin (360 mg SDD QD, Day 5): 5.7 ng/mL
- Tmax (360 mg SDD QD, Day 5): 47.4 min
- AUC24 h (360 mg SDD QD, Day 6): 631 ng·h/mL
- Cmax (360 mg SDD QD, Day 6): 167.6 ng/mL
- Cmin (360 mg SDD QD, Day 6): 5.7 ng/mL
- Tmax (360 mg SDD QD, Day 6): 47.4 min
- AUC24 h (360 mg SDD QD, Day 7): 631 ng·h/mL
- Cmax (360 mg SDD QD, Day 7): 167.6 ng/mL
- Cmin (360 mg SDD QD, Day 7): 5.7 ng/mL
- Tmax (360 mg SDD QD, Day 7): 47.4 min
- AUC24 h accumulation (360 mg SDD QD): 113%
- Cmax accumulation (360 mg SDD QD): 103%
